Laboratory results: patent US20190249218A1, “Method, Medium and Kit for Detecting Multiple Aminoglycoside Resistance Including 16S rRNA Methylase Mediated Resistance in Gram-Negative Bacteria” (priority 2016, published 2019)
Converted amounts (≈) assume the structure as drawn. Where two headings read alike, the source gives them in different places.

Experiments:
Experiment in all cases: MIC by broth microdilution
E. coli = format: cell-based, Escherichia coli
Procedure: (§1) MICs of amikacin and gentamicin were determined using the broth microdilution method in cation-adjusted Mueller-Hinton broth, as recommended by the Clinical Laboratory Standard Institute (CLSI) guidelines (8). Amikacin and gentamicin sulfate (Fluorochem, Dertbyshire, UK) were tested over a range of dilutions from 0.25 to 256 μg/ml. A final inoculum of 5.10^5 CFU/ml of each strain was distributed in the 96 wells tray (Sarstedt, Ntimbrecht, Germany). All experiments were repeated in triplicate and E. coli ATCC 25922 was used as quality control. According to the CLSI breakpoints (9), Enterobacteriaceae isolates with gentamicin MICs≤4 and amikacin MICs≤16 mg/L were categorized as susceptible, while those with gentamicin MICs≥16 and amikacin MICs≥64 mg/L were categorized as resistant.
(§2) MICs of amikacin and gentamicin were determined as described above in Example 1.

E. cloacae = format: cell-based, Enterobacter cloacae; conditions: for MIC: Enterobacter cloacae, read-out: MIC
Procedure: as §1, §2

P. aeruginosa = format: cell-based, Pseudomonas aeruginosa; conditions: Pseudomonas aeruginosa, read-out: MIC
Procedure: as §1, §2

S. marcescens = format: cell-based, Serratia marcescens; conditions: AAC(3)-I
Procedure: as §1, §2

K. pneumoniae = format: cell-based, Klebsiella pneumoniae; conditions: for MIC: Klebsiella pneumoniae, read-out: MIC
Procedure: as §1, §2

P. stuartii = format: cell-based, Providencia stuartii; conditions: for MIC: Providencia stuartii, read-out: MIC
Procedure: as §1, §2

[1] = isolate 1110, E. cloacae, ANT(2″)
[2] = isolate HM, E. cloacae, AG susceptible
[3] = isolate R713, E. cloacae, AG susceptible
[4] = isolate R1433, E. cloacae, AG susceptible
[5] = isolate R2258, E. cloacae, armA
[6] = isolate 13000, K. pneumoniae, APH(3′)-I + AAC(3)-V
[7] = isolate 22233, K. pneumoniae, AAC(3)-V
[8] = isolate N34, K. pneumoniae, rmtC
[9] = isolate R108, K. pneumoniae, armA
[10] = isolate R347, K. pneumoniae, AG susceptible
[11] = isolate R500, K. pneumoniae, armA
[12] = isolate R502, K. pneumoniae, rmtF
[13] = isolate R2160, K. pneumoniae, rmtG
[14] = isolate R2257, K. pneumoniae, armA
[15] = isolate S155, K. pneumoniae, AG susceptible
[16] = isolate BM2667, P. stuartii, APH(3′)-VI + AAC(2′)
[17] = isolate R265, P. stuartii, rmtC

With NCC[C@H](O)C(=O)N[C@@H]1C[C@H](N)[C@@H](O[C@H]2O[C@H](CN)[C@@H](O)[C@H](O)[C@H]2O)[C@H](O)[C@H]1O[C@H]1O[C@H](CO)[C@@H](O)[C@H](N)[C@H]1O [Amikacin] as the molecule, how does the “Amikacin Phenotype” value (E. coli; isolate R2278, E. coli ATCC 35218, AG susceptible) read?
Its value is “S (amikacin MICs≤16 mg/L were categorized as susceptible)”.

What about the “Amikacin Phenotype” value (E. coli; isolate R4100, E. coli TOP10, npmA) of the same molecule?
Its value is “R (amikacin MICs≥64 mg/L were categorized as resistant)”.

And the “Amikacin Phenotype” value (E. coli; isolate RP4, E. coli, APH(3′)-Ib)?
Its value is “S (amikacin MICs≤16 mg/L were categorized as susceptible)”.

What about the “Amikacin Phenotype” value (E. coli; isolate pFCT1163, E. coli, AAC(6′)-Ia) of the same molecule?
Its value is “R (amikacin MICs≥64 mg/L were categorized as resistant)”.

What about the “Amikacin Phenotype” value (E. coli; isolate pFCT4392, E. coli, AAC(3)-Ia) of the same molecule?
Its value is “S (amikacin MICs≤16 mg/L were categorized as susceptible)”.

What about the “Amikacin Phenotype” value (E. coli; isolate pWP701, E. coli, AAC(3)-IV) of the same molecule?
Its value is “S (amikacin MICs≤16 mg/L were categorized as susceptible)”.

What about the MIC (E. cloacae; [1]) of the same molecule?
The MIC was 1 µg/mL (≈ 1.71 µM).

What about the MIC (E. cloacae; [2]) of the same molecule?
Its MIC is 4 µg/mL (≈ 6.83 µM).

What about the MIC (E. cloacae; [3]) of the same molecule?
The MIC was 4 µg/mL (≈ 6.83 µM).

What about the MIC (E. cloacae; [4]) of the same molecule?
The MIC was 4 µg/mL (≈ 6.83 µM).

What about the MIC (E. cloacae; [5]) of the same molecule?
The MIC was > 256 µg/mL.

What about the MIC (E. cloacae; strain 1110, E. cloacae, ANT(2″)) of the same molecule?
The MIC was 1 µg/mL (≈ 1.71 µM).

And the MIC (E. cloacae; strain HM, E. cloacae, susceptible)?
The MIC was 4 µg/mL (≈ 6.83 µM).

And the MIC (E. cloacae; strain R713, E. cloacae, susceptible)?
Its MIC is 4 µg/mL (≈ 6.83 µM).

What about the MIC (E. cloacae; strain R1433, E. cloacae, susceptible) of the same molecule?
Its MIC is 4 µg/mL (≈ 6.83 µM).

What about the MIC (E. cloacae; strain R2258, E. cloacae, armA) of the same molecule?
Its MIC is > 512 µg/mL.

And the “Amikacin Phenotype” value (E. cloacae; [1])?
Its value is “S (amikacin MICs≤16 mg/L were categorized as susceptible)”.

And the “Amikacin Phenotype” value (E. cloacae; [2])?
Its value is “S (amikacin MICs≤16 mg/L were categorized as susceptible)”.

What about the “Amikacin Phenotype” value (E. cloacae; [3]) of the same molecule?
Its value is “S (amikacin MICs≤16 mg/L were categorized as susceptible)”.

And the “Amikacin Phenotype” value (E. cloacae; [4])?
Its value is “S (amikacin MICs≤16 mg/L were categorized as susceptible)”.

And the “Amikacin Phenotype” value (E. cloacae; [5])?
Its value is “R (amikacin MICs≥64 mg/L were categorized as resistant)”.

What about the MIC (P. aeruginosa; strain 3655, P. aeruginosa, APH(3′)-I + ANT(2″)) of the same molecule?
Its MIC is 1 µg/mL.

And the MIC (P. aeruginosa; strain 3658, P. aeruginosa, APH(3′)-I + ANT(4′)-II)?
Its MIC is > 128 µg/mL.

What about the MIC (P. aeruginosa; strain 28233, P. aeruginosa, APH(3′)-I + AAC(3)-I) of the same molecule?
The MIC was 4 µg/mL.

And the MIC (P. aeruginosa; strain R191, P. aeruginosa, susceptible)?
Its MIC is 8 µg/mL (≈ 13.7 µM).

What about the MIC (S. marcescens; Serratia marcescens, isolate 4290, S. marcescens, read-out: MIC) of the same molecule?
Its MIC is 4 µg/mL (≈ 6.83 µM).

What about the “Amikacin Phenotype” value (S. marcescens; isolate 4290, S. marcescens) of the same molecule?
Its value is “S (amikacin MICs≤16 mg/L were categorized as susceptible)”.

What about the MIC (S. marcescens; strain 4290, S. marcescens) of the same molecule?
Its MIC is 4 µg/mL (≈ 6.83 µM).

And the MIC (K. pneumoniae; isolate 1800, K. pneumoniae, AAC(6′)-I + AAC(3)-I)?
The MIC was 32 µg/mL.

And the MIC (K. pneumoniae; [6])?
The MIC was 0.5 µg/mL.

And the MIC (K. pneumoniae; [7])?
Its MIC is 16 µg/mL (≈ 27.3 µM).

And the MIC (K. pneumoniae; [8])?
Its MIC is > 256 µg/mL.

And the MIC (K. pneumoniae; [9])?
The MIC was > 256 µg/mL.

What about the MIC (K. pneumoniae; [10]) of the same molecule?
Its MIC is 4 µg/mL (≈ 6.83 µM).

What about the MIC (K. pneumoniae; [11]) of the same molecule?
Its MIC is > 256 µg/mL.

What about the MIC (K. pneumoniae; [12]) of the same molecule?
Its MIC is > 256 µg/mL.

What about the MIC (K. pneumoniae; [13]) of the same molecule?
The MIC was > 256 µg/mL.

And the MIC (K. pneumoniae; [14])?
Its MIC is > 256 µg/mL.

What about the MIC (K. pneumoniae; [15]) of the same molecule?
Its MIC is 2 µg/mL (≈ 3.42 µM).

What about the MIC (K. pneumoniae; strain 1800, K. pneumoniae, AAC(6′)-I + AAC(3)-I) of the same molecule?
The MIC was 32 µg/mL.

What about the MIC (K. pneumoniae; strain 13000, K. pneumoniae, APH(3′)-I + AAC(3)-V) of the same molecule?
Its MIC is 0.5 µg/mL.

And the MIC (K. pneumoniae; strain 22233, K. pneumoniae, AAC(3)-V)?
The MIC was 16 µg/mL (≈ 27.3 µM).

What about the MIC (K. pneumoniae; strain N34, K. pneumoniae, rmtC) of the same molecule?
Its MIC is > 512 µg/mL.

And the MIC (K. pneumoniae; strain R108, K. pneumoniae, armA)?
Its MIC is > 512 µg/mL.

And the MIC (K. pneumoniae; strain R347, K. pneumoniae, susceptible)?
The MIC was 4 µg/mL (≈ 6.83 µM).

What about the MIC (K. pneumoniae; strain R500, K. pneumoniae, armA) of the same molecule?
The MIC was > 512 µg/mL.

And the MIC (K. pneumoniae; strain R502, K. pneumoniae, rmtF)?
The MIC was > 512 µg/mL.

And the MIC (K. pneumoniae; strain R2160, K. pneumoniae, rmtG)?
Its MIC is > 512 µg/mL.

What about the MIC (K. pneumoniae; strain R2257, K. pneumoniae, armA) of the same molecule?
The MIC was > 512 µg/mL.

And the MIC (K. pneumoniae; strain S155, K. pneumoniae, susceptible)?
The MIC was 2 µg/mL (≈ 3.42 µM).

What about the “Amikacin Phenotype” value (K. pneumoniae; [6]) of the same molecule?
Its value is “S (amikacin MICs≤16 mg/L were categorized as susceptible)”.

What about the “Amikacin Phenotype” value (K. pneumoniae; [7]) of the same molecule?
Its value is “S (amikacin MICs≤16 mg/L were categorized as susceptible)”.

And the “Amikacin Phenotype” value (K. pneumoniae; [8])?
Its value is “R (amikacin MICs≥64 mg/L were categorized as resistant)”.

What about the “Amikacin Phenotype” value (K. pneumoniae; [9]) of the same molecule?
Its value is “R (amikacin MICs≥64 mg/L were categorized as resistant)”.

What about the “Amikacin Phenotype” value (K. pneumoniae; [10]) of the same molecule?
The value was “S (amikacin MICs≤16 mg/L were categorized as susceptible)”.

What about the “Amikacin Phenotype” value (K. pneumoniae; [11]) of the same molecule?
Its value is “R (amikacin MICs≥64 mg/L were categorized as resistant)”.

And the “Amikacin Phenotype” value (K. pneumoniae; [12])?
The value was “R (amikacin MICs≥64 mg/L were categorized as resistant)”.

What about the “Amikacin Phenotype” value (K. pneumoniae; [13]) of the same molecule?
The value was “R (amikacin MICs≥64 mg/L were categorized as resistant)”.

And the “Amikacin Phenotype” value (K. pneumoniae; [14])?
The value was “R (amikacin MICs≥64 mg/L were categorized as resistant)”.

And the “Amikacin Phenotype” value (K. pneumoniae; [15])?
The value was “S (amikacin MICs≤16 mg/L were categorized as susceptible)”.

What about the MIC (P. stuartii; [16]) of the same molecule?
The MIC was 64 µg/mL.

And the MIC (P. stuartii; isolate R38, P. stuartii, rmtC)?
The MIC was > 256 µg/mL.

What about the MIC (P. stuartii; [17]) of the same molecule?
Its MIC is > 256 µg/mL.

What about the MIC (P. stuartii; strain BM2667, P. stuartii, APH(3′)-VI + AAC(2′)) of the same molecule?
The MIC was 64 µg/mL.

And the MIC (P. stuartii; strain R38, P. stuartii, rmtC)?
The MIC was > 512 µg/mL.

And the MIC (P. stuartii; strain R265, P. stuartii, rmtC)?
Its MIC is > 512 µg/mL.

What about the “Amikacin Phenotype” value (P. stuartii; [16]) of the same molecule?
Its value is “R (amikacin MICs≥64 mg/L were categorized as resistant)”.

And the “Amikacin Phenotype” value (P. stuartii; isolate R38, P. stuartii, rmtC)?
The value was “R (amikacin MICs≥64 mg/L were categorized as resistant)”.

And the “Amikacin Phenotype” value (P. stuartii; [17])?
Its value is “R (amikacin MICs≥64 mg/L were categorized as resistant)”.
